This passage reports EC50 results from patent publication US10280175B2, “Hepatitis B antiviral agents” (Enanta Pharmaceuticals, Inc., priority 2016, dated 2019).

For orientation: EC50 means the concentration needed to bring the measured effect to its halfway point.

SMILES strings stand for the structures. A value given as a limit tells only on which side of the number the result lay.

In the assay the test system is HBV in HepAD38 cells. Kind of assay: HepAD38 cell antiviral assay (reduction of viral product accumulation). The class given is cell-based. The note with it: Hepatitis B virus, concentration reducing viral product accumulation by 50% relative to no drug controls. How it is done: Methods: HepAD38 cells are maintained as previously reported (Ladner et al, Antimicrob. Agents Chemother. 1997, […], 1715). Briefly, cells are passaged upon attaining confluency in DMEM/F12 media in the presence of 10% FBS, Penn/Strep, 250 μg/mL G418, and 1 ug/ml tetracycline. Novel compounds are screened by first washing cells three times with PBS to remove tetracycline, and plating in 96 well plates at 35,000 cells/well. Compounds dissolved in DMSO are then diluted 1:200 into wells containing cells. Five days after compound addition, material is harvested for analysis. For an extended 8 day analysis, cells are plated and treated as described above, but media and compound are refreshed on d2 and d5 post initial treatment.
On harvest day, virion DNA is obtained by lysing with Sidestep Lysis and Stabilization Buffer and then quantified via quantitative real time PCR. Commercially available ELISA kits are used to quantitate the viral proteins HBsAg (Alpco) or HBeAg (US Biological) by following the manufacturer's recommended protocol after diluting samples to match the linear range of their respective assays. Irrespective of readout, compound concentrations that reduce viral product accumulation in the cell lysates or supernatants by 50% relative to no drug controls (EC50) are reported; EC50 ranges are as follows: A<1 μM; B 1-10 μM; C>10 μM.

For the compound `C[C@H](NC(=O)OC(C)(C)C)C(=O)O[C@@H]1CC2CC[C@H](C1)N2S(=O)(=O)c1cc(-c2ncc(-c3ccc(Br)c(F)c3)[nH]2)ccc1Cl` [Example 3], the EC50 was < 1 µM. For the compound `O=S(=O)(c1cc(-c2ncc(-c3ccc(C(F)(F)F)c(C4CC4)c3)[nH]2)ccc1Cl)N1C2CC[C@@H]1C[C@H](O)C2` [Example 12], the EC50 was < 1 µM.

`O=C(Nc1cc(F)c(F)c(F)c1)c1ccc(Cl)c(S(=O)(=O)N2C3CC[C@@H]2C[C@H](O)C3)c1` [Example 6]: the EC50 was < 1 µM. In turn, `O=S(=O)(c1cc(-c2ncc(-c3ccc(Br)c(F)c3)[nH]2)ccc1Cl)N1CC2(COC2)C1` [Example 22] registered an EC50 of 1 to 10 µM.

As to `O=S(=O)(c1cc(-c2ncc(-c3ccc(C4CC4)c(Cl)c3)[nH]2)ccc1Cl)N1C2CC[C@@H]1C[C@H](O)C2` [Example 10], the EC50 is < 1 µM. For `O=S(=O)(c1cc(C2(Nc3cc(F)c(F)c(F)c3)COC2)ccc1Cl)N1C2CC[C@@H]1CC(O)C2` (stereo partly drawn) [Example 24], the EC50 was > 10 µM. In turn, `O=S(=O)(c1cc(-c2ncc(-c3ccc(C4CC4)c(C(F)(F)F)c3)[nH]2)ccc1Cl)N1C2CC[C@@H]1C[C@H](O)C2` [Example 15] yielded an EC50 of 1 to 10 µM. Turning to `C[C@H](N)C(=O)O[C@@H]1CC2CC[C@H](C1)N2S(=O)(=O)c1cc(-c2ncc(-c3ccc(Br)c(F)c3)[nH]2)ccc1Cl` [Example 4], the EC50 is < 1 µM.

`C=C1CC2CCC(C1)N2S(=O)(=O)c1cc(C(=O)Nc2cc(F)c(F)c(F)c2)ccc1Cl` [Example 17]: the EC50 is < 1 µM. Under `O=S(=O)(c1cc(-c2ncc(-c3ccc(C(F)(F)F)c(Cl)c3)[nH]2)ccc1Cl)N1C2CC[C@@H]1C[C@H](O)C2` [Example 13] stands < 1 µM. In the case of `O=C(Nc1cc(F)c(F)c(F)c1)c1ccc(Cl)c(S(=O)(=O)N2CCC(O)C3(CC3)C2)c1` (stereo not drawn) [Example 9] it was < 1 µM; in that of `O=S(=O)(c1cc(-c2ncc(-c3ccc(Br)c(F)c3)[nH]2)ccc1Cl)N1C2CC[C@@H]1C[C@@H](O)C2` [Example 2], < 1 µM.

With `O=C(Nc1ccc(Br)c(F)c1)c1ccc(Cl)c(S(=O)(=O)N2C3CC[C@@H]2C[C@H](O)C3)c1` [Example 8], the EC50 is 1 to 10 µM. Under `O=S(=O)(c1cc(-c2ncc(-c3ccc(Br)c(F)c3)[nH]2)ccc1Cl)N1C2CC[C@@H]1C[C@H](O)C2` [Example 1] stands < 1 µM.

As for `O=C1CC2CCC(C1)N2S(=O)(=O)c1cc(C(=O)Nc2cc(F)c(F)c(F)c2)ccc1Cl` [Example 16], the EC50 is < 1 µM. In the case of `O=C(Nc1cc(F)c(F)c(F)c1)c1ccc(Cl)c(S(=O)(=O)N2CCC3(CC2)COC3)c1` [Example 20] it was 1 to 10 µM. Turning to `O=C(Nc1cc(F)c(F)c(F)c1)c1ccc(Cl)c(S(=O)(=O)N2C3CCC2CC(CO)C3)c1` (stereo not drawn) [Example 19], the EC50 is < 1 µM. Under `O=S(=O)(c1cc(-c2ncc(-c3ccc(Br)c(F)c3)[nH]2)ccc1Cl)N1CCC2(COC2)C1` [Example 21] stands 1 to 10 µM; under `O=C(Nc1cc(F)c(F)c(F)c1)c1ccc(Cl)c(S(=O)(=O)N2C3CC[C@@H]2C[C@@H](O)C3)c1` [Example 7], < 1 µM; under `O=S(=O)(c1cc(C(Nc2cc(F)c(F)c(F)c2)C(F)(F)F)ccc1Cl)N1C2CC[C@@H]1CC(O)C2` (stereo partly drawn) [Example 23], > 10 µM. Turning to `O=S(=O)(c1cc(-c2ncc(-c3ccc(Cl)c(C(F)(F)F)c3)[nH]2)ccc1Cl)N1C2CC[C@@H]1C[C@H](O)C2` [Example 14], the EC50 was < 1 µM.

As to `O=S(=O)(c1cc(-c2ncc(-c3ccc(Br)c(F)c3)[nH]2)ccc1Cl)N1CCC(O)C2(CC2)C1` (stereo not drawn) [Example 5], the EC50 was < 1 µM. For the compound `O=C(Nc1cc(F)c(F)c(F)c1)c1ccc(Cl)c(S(=O)(=O)N2C3CCC2CC(O)(CO)C3)c1` (stereo not drawn) [Example 18], the EC50 was < 1 µM. In the case of `O=S(=O)(c1cc(-c2ncc(-c3ccc(Cl)c(C4CC4)c3)[nH]2)ccc1Cl)N1C2CC[C@@H]1C[C@H](O)C2` [Example 11] it was < 1 µM.
